Consider five compounds from patent US5789377A (priority 1995, dated 1998).

Common to all, as to format: cell-based
One data set concerns RAW cells. The experiment in a line: RAW cell viability by Trypan blue exclusion. The following applies: up to 50 μg peptide.
The subject of the next data set is S. aureus. To be noted: fragments of CEMA. The method, then:
(§1) The minimum inhibitory concentrations (MIC) of CEME, CEMA and melittin were determined for a number of different bacteria (Table 2). Briefly, cells were grown overnight at 37° C. in LB-S (Luria broth without any salt supplement) and diluted one in 10,000 in the same medium to give concentrations of about 10^4 to 10^5 CFU/ml. The broth dilutions were set up in a 96 well microtiter plate by putting 200 μl of LB-S containing the initial concentration of antibiotic or compound in column 1 and 100 μl of the same medium in columns 2-12. The compounds were diluted by taking 100 μl of broth from column 1 and mixing it with column 2, resulting in a one in two dilution. This was continued to column 10. Finally, 10 μl of bacteria were pipetted into columns 1-11, and the plates incubated overnight at 37° C. The next day the plates were scored for growth in the wells, and the MIC determined.

The test system of another data set is P. aeruginosa. To be noted: fragments of CEMA. The method, then: as §1
The next data set relates to E. coli. The method, then: as §1
The next data set deals with Candida albicans. The experiment in a line: MIC broth dilution. The following applies: fragments of CEMA. The protocol: as §1
Consequently, although CEMA is an effective antimicrobial agent, the individual fragments have no antimicrobial (or anti-fungal) activity.

A further data set deals with E. coli strain DC2. Put plainly: gel overlay antibacterial activity assay. The following applies: gel overlaid with ≈10^5 E. coli strain DC2, overnight at 37° C. The protocol: A sample of the partially purified CEME protein was electrophoresed on a 15% acid-urea gel, which separates proteins based on charge and mass (Panyim and Chalkey, Arch. Biochem. Biophys., 130:337, 1969). The pH of the buffer is acidic (=pH 5.0) and the polarity is reversed such that proteins migrate to the cathode. Therefore, the small cationic peptides run relatively quickly through the gel and thus can be easily identified. Antibacterial activity was tested as previously described (Hultmark, Eur. J. Biochem., 106:7, 1980). The gel was incubated in Mueller Hinton broth+0.2M NaPO4 pH 7.4 for 1 hr. It was overlaid with 5 mls of the same media containing 0.6% agar and ≈10^5 E. coli strain DC2, and then again with 5 ml of the same media containing only 0.6% agar. […] Melittin is used as a positive control due to its antibacterial activity and similarity in size and PI values.

The test system of data set [1] is P. AERUGINOSA H309. Put plainly: lysozyme lysis assay (membrane permeabilization). To be noted: 50 μg/ml lysozyme, decrease in OD600, FIG. 5. The protocol:
Membrane permeabilization by polycationic compounds was measured in two different assays. The first assay measured membrane disruption by the ability of lysozyme to reach the periplasm and cause cell lysis. […] The uptake of lysozyme into whole cells due to membrane permeabilization by various compounds was previously described in Hancock, et al., Antimicrobial Agents and Chemo., 19:777, 1981. Overnight cultures of P. aeruginosa H309 or E. cloacae 218R1 grown in LB-S were diluted 1 in 50 in fresh medium and grown to an OD600 =0.5-0.6. The cells were harvested in a Silencer H-103N clinical centrifuge at 1800 g for 10 min, washed once with one volume of assay buffer (5 mM HEPES pH 7.2, 5 mM KCN), and resuspended in the same buffer to an OD600 of 0.5. Assays consisted of 600 μl of cells with 50 μg/ml of chicken egg white lysozyme and varying concentrations of cationic compounds. Cell lysis was measured as a decrease in the OD600 in a Perkin-Elmer dual beam spectrophotometer. Parallel experiments performed without lysozyme enabled the measurement of the lytic activity of the compounds themselves. To test whether or not permeability to lysozyme could be inhibited by divalent cations, various concentrations of MgCl2 were added to the assay after the addition of lysozyme and before the addition of the test compound.

Data set [2] has as its system P. AERUGINOSA H309. The experiment in a line: 1-N-phenylnaphthylamine (NPN) uptake assay. To be noted: 10 μM NPN, fluorescence, FIG. 7. The text has this: (§2) The second assay determined membrane permeability by the ability of 1-N-phenylnaphthylamine (NPN), a small fluorescent probe, to insert itself into the membrane. Normally, very little NPN can penetrate the outer membrane, but in the presence of a membrane permeabilizer it can insert into the hydrophobic membrane resulting in an increase in fluorescence (FIGS. 7 and 8). This N-phenylnaphthylamine uptake assay was previously described by Loh, et al., Antimicrobial Agents and Chemo., 26:546, 1984. Cells were prepared exactly the same as for the lysozyme lysis assay. 1-N-phenylnaphthylamine (NPN) was dissolved in acetone at a concentration of 500 μM. NPN fluorescence was measured in a Perkin-Elmer 650-10S fluorescent spectrophotometer using excitation and emission wavelengths set to 350 nm and 420 nm respectively, with slit widths of 5 nm. The assay was standardized by adding 20 μl of NPN (final concentration of 10 μM) and 10 μl of 0.64 mg/ml of polymyxin B (final concentration of 6.4 μg/ml) into 1 ml of cells, and adjusting the resulting fluorescence to read 90% deflection (90 arbitrary units). Various compounds were tested by adding 10 μl of different concentrations to a cuvette containing 1 ml of cells and 10 μM NPN. Permeabilizing activity was designated as the total fluorescence minus the fluorescence due to NPN alone. Following the fluorescence measurement, the OD600 of the cells was taken to ensure no significant cell lysis had occurred.

The test system of the next data set is E. cloacae. To be noted: strain 218R1, β-lactam resistant. The protocol: as §1
In the next data set the test system is S. typhimurium. The protocol:
as §1

A further data set relates to E. cloacae 218R1. Put plainly: 1-N-phenylnaphthylamine (NPN) uptake assay. The following applies: 10 μM NPN, fluorescence, FIG. 8.
From the text: as §2

Setting [3] is: strain DC2, Polymyxin sensitive.
[4] abbreviates: strain SC9251, Parent of SC9252.
Setting [5] is: strain SC9252, Polymyxin resistant.
The mark [6] stands for this setting: strain C590, Defensin sensitive.

Like-named read-outs stand apart in the source and are kept apart here.

For the compound `CC[C@H](C)[C@H](NC(=O)CNC(=O)[C@@H](NC(=O)[C@H](CCCCN)NC(=O)[C@H](CCCCN)NC(=O)[C@H](Cc1ccccc1)NC(=O)[C@H](CC(C)C)NC(=O)[C@H](CCCCN)NC(=O)[C@H](Cc1c[nH]c2ccccc12)NC(=O)[C@@H](N)CCCCN)[C@@H](C)CC)C(=O)NCC(=O)N[C@@H](C)C(=O)N[C@H](C(=O)N[C@@H](CC(C)C)C(=O)N[C@@H](CCCCN)C(=O)N[C@H](C(=O)N[C@@H](CC(C)C)C(=O)N[C@H](C(=O)N[C@H](C(=O)NCC(=O)N[C@@H](CC(C)C)C(=O)N1CCC[C@H]1C(=O)N[C@@H](C)C(=O)N[C@@H](CC(C)C)C(=O)N[C@@H](CCCCN)C(=O)N[C@@H](CC(C)C)C(=O)N[C@H](C(=O)N[C@@H](CCCCN)C(=O)O)[C@@H](C)O)[C@@H](C)O)[C@@H](C)O)C(C)C)C(C)C` [CEMA], the RAW cell viability result with RAW cells is “no apparent decrease”.
On to `CC[C@H](C)[C@H](NC(=O)CN)C(=O)NCC(=O)N[C@@H](C)C(=O)N[C@H](C(=O)N[C@@H](CC(C)C)C(=O)N[C@@H](CCCCN)C(=O)N[C@H](C(=O)N[C@@H](CC(C)C)C(=O)N[C@H](C(=O)N[C@H](C(=O)NCC(=O)N[C@@H](CC(C)C)C(=O)N1CCC[C@H]1C(=O)N[C@@H](C)C(=O)N[C@@H](CC(C)C)C(=O)N[C@@H](CCCCN)C(=O)N[C@@H](CC(C)C)C(=O)N[C@H](C(=O)N[C@@H](CCCCN)C(=O)O)[C@@H](C)O)[C@@H](C)O)[C@@H](C)O)C(C)C)C(C)C` [MA], for which the MIC result in the data set with S. aureus was “greater than 64 ug/ml”; against P. aeruginosa, “greater than 64 ug/ml”; against E. coli (E. coli, fragments of CEMA) it was “greater than 64 ug/ml”; against Candida albicans, “greater than 64 ug/ml”.
Turning to `CC[C@H](C)[C@H](NC(=O)CN)C(=O)NCC(=O)N[C@@H](C)C(=O)N[C@H](C(=O)N[C@@H](CC(C)C)C(=O)N[C@@H](CCCCN)C(=O)N[C@H](C(=O)N[C@@H](CC(C)C)C(=O)N[C@H](C(=O)N[C@H](C(=O)NCC(=O)N[C@@H](CC(C)C)C(=O)N1CCC[C@H]1C(=O)N[C@@H](C)C(=O)N[C@@H](CC(C)C)C(=O)N[C@H](C(=O)N[C@@H](CO)C(=O)N[C@@H](Cc1c[nH]c2ccccc12)C(=O)N[C@H](C(=O)N[C@@H](CCCCN)C(=O)N[C@@H](CCCNC(=N)N)C(=O)N[C@@H](CCCCN)C(=O)N[C@@H](CCCNC(=N)N)C(=O)N[C@@H](CCC(N)=O)C(=O)N[C@@H](CCC(N)=O)C(N)=O)[C@@H](C)CC)[C@@H](C)CC)[C@@H](C)O)[C@@H](C)O)C(C)C)C(C)C` [MEL, melittin], the “zones of clearing on overlaid acid-urea gel” value with E. coli strain DC2 is “zones of clearing”. Besides, in the data set with P. AERUGINOSA H309 [1], the “permeabilization of outer membrane to lysozyme” value is recorded as “did not appear to be a good permeabilizer as compared to the other peptides”. In addition, the “opening up the membrane to NPN” value in the data set with P. AERUGINOSA H309 [2] is “less active”.
Regarding gentamicin [GM], the MIC against E. coli (setting [3]) was 0.5 mg/L; in the data set with E. coli (setting [4]), 2 mg/L; in the data set with E. coli (setting [5]), 4 mg/L; against E. cloacae, 0.5 mg/L; in the data set with S. typhimurium (strain C587, Parent of C590), 4 mg/L; against S. typhimurium (setting [6]), 2 mg/L.
polymyxin B [PX]: the MIC against E. coli (setting [3]) came to 0.06 mg/L; with E. coli (setting [4]), 0.06 mg/L; in the data set on E. coli (setting [5]) it was 4 mg/L; in the data set with E. cloacae it was 0.5 mg/L; with S. typhimurium (strain C587, Parent of C590), 1 mg/L; against S. typhimurium (setting [6]) it was 0.25 mg/L. Further, the “opening up the membrane to NPN” value in the data set on E. cloacae 218R1 and with P. AERUGINOSA H309 [2] was “equally active” each time.
